Values of other authors as cited in patent US9084755B2, “Method for extracting and separating ginkgolides” (CHENGDU BAIYU TECHNOLOGY PHARMACY CO., LTD, priority 2012, dated 2015).

Target: platelet-activating factor PAF receptor (Homo sapiens, UniProt P25105)
Conditions: compared among ginkgolides

platelet-activating factor PAF receptor, sequence (P25105 whole entry): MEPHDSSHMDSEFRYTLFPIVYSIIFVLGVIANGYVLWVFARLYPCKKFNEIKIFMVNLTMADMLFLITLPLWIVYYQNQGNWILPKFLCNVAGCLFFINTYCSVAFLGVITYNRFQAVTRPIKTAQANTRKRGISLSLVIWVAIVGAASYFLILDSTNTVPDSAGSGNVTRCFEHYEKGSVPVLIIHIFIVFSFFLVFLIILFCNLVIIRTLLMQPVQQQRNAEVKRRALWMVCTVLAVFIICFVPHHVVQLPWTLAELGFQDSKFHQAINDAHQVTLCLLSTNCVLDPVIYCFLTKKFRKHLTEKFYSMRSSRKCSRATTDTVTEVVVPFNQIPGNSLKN

C[C@@H]1C(=O)O[C@H]2[C@H](O)C34[C@H]5C[C@@H](C(C)(C)C)[C@]36[C@@H](OC(=O)[C@@H]6O)O[C@@]4(C(=O)O5)[C@@]12O (stereo partly shown) [ginkgolide B]
antagonism to the PAF: strongest
